Earlier results in patent US20190352262A1, “New Pleuromutilin Antibiotic Compounds, Compositions and Methods of Use and Synthesis” (YALE UNIVERSITY, priority 2017, published 2019).
Entries after “also recorded” stand apart in the source; their conditions may differ.

Tested on: Gram-positive bacteria
Settings: background statement, no data of the applicant

Compound | antibacterial activity (growth inhibition of Gram-positive bacteria)
C=C[C@]1(C)C[C@@H](O)[C@]2(C)[C@H](C)CC[C@]3(CCC(=O)[C@H]32)[C@@H](C)[C@@H]1O [(+)-mutilin] | not active; also recorded: largely inactive
C=C[C@]1(C)C[C@@H](OC(=O)CO)[C@@]2(C)C3C(=O)CC[C@@]3(CC[C@H]2C)[C@H](C)C1O (single isomer, unassigned; (+)) [(+)-Pleuromutilin, (+)-pleuromutilin] | inhibit the growth
